In US7285555B2, “6-aryl-7-halo-imidazo[1,2-a]pyrimidines as anticancer agents” (Wyeth Holdings Corporation, priority 2003, dated 2007):

Legend:
KB-8-5 cells = assay: MTS cytotoxicity test procedure with KB-8-5 cells; type: cell-based, human; details: MTS assay
Description: (§1) Human cancer cell lines, unless otherwise noted, are obtained from the American Type Culture Collection (Rockville, Md.). […]
(§2) The MTS assay, which is sold in kit form by Promega (Madison, Wis.; CellTiter 96 AQueous Non-Radioactive Cell Proliferation Assay), is based on the conversion by viable cells, but not by dead cells, of the tetrazolium salt, MTS (3-(4,5-dimethylthiazol-2-yl)-5-(3-carboxymethoxyphenyl)-2-(4-sulphophenyl)-2H-tetrazolium, inner salt), into a water-soluble colored formazan which is detected by spectrophotometry. […] For the test procedure, cells are harvested by trypsinization (or, in the case of non-adherent cells, by simple resuspension), washed, counted and distributed to wells of 96-well flat-bottom microtiter plates at 1000 cells per well in 200 μL of medium. […]
(§3) After three days of culture with test compounds (day 5 overall), the MTS assay is done on all wells of the experimental plates. The absorbance values of the quadruplicate sample wells are averaged and divided by the average of the “time 0” values. […]

KB cells [1] = assay: MTS cytotoxicity test procedure with KB cells; type: cell-based; details: Homo sapiens, MTS assay, means of 2 independent experiments
Description: as §1, §2, §3

HL-60/ADR cells = assay: MTS cytotoxicity test procedure with HL-60/ADR cells; type: cell-based, human; details: for Ratio: IC50 on HL-60/ADR cells/IC50 on HL-60 cells
Description: (§4) Human cancer cell lines, unless otherwise noted, are obtained from the American Type Culture Collection (Rockville, Md.). The following drug-sensitive parental cell lines, and their derived drug-resistant counterparts, are obtained from the originators as listed: (a) S1 (parental line from a subclone of human colon carcinoma line LS174T) and derived S1-M1-3.2 (herein called S1-M1) which expresses the MXR drug transporter protein, are provided by Dr. L. Greenberger, Wyeth Research (Rabindran, S. K., He, H., Singh, M., Brown, E., Collins, K. I., Annable, T., and Greenberger, L. M. Reversal of a novel multidrug resistance mechanism in human colon carcinoma cells by fumitremorgin C. Cancer Res., 58: 5850-5858,1998); (b) parental HL-60 human promyelocytic leukemia line and derived HL-60/ADR, which expresses the MRP1 drug transporter protein, are provided by Dr. M. Center, University of Kansas (McGrath, T., and Center, M. S. Adriamycin resistance in HL60 cells in the absence of detectable P-glycoprotein. Biochem. Biophys. […] J. Biol. Chem., 261: 7762-7770, 1986) via Dr. L. Greenberger, Wyeth Research.
(§5) The MTS assay, which is sold in kit form by Promega (Madison, Wis.; CellTiter 96 AQueous Non-Radioactive Cell Proliferation Assay), is based on the conversion by viable cells, but not by dead cells, of the tetrazolium salt, MTS (3-(4,5-dimethylthiazol-2-yl)-5-(3-carboxymethoxyphenyl)-2-(4-sulphophenyl)-2H-tetrazolium, inner salt), into a water-soluble colored formazan which is detected by spectrophotometry. Compounds are tested at nine concentrations, in order to determine IC50 values. For the test procedure, cells are harvested by trypsinization (or, in the case of non-adherent cells, by simple resuspension), washed, counted and distributed to wells of 96-well flat-bottom microtiter plates at 1000 cells per well in 200 μL of medium. In addition, one row of wells on a separate plate receives cells as above (“time 0” plate). All plates are incubated at 370 in humidified 5% CO2 in air for about 24 hr.
(§6) On day 2, compounds for test are diluted and added to wells. Compounds are dissolved in DMSO at 10 mg/mL. For each compound, nine serial 2-fold dilutions are prepared in DMSO. Ten μL of each dilution in DMSO is transferred to 100 μL of medium, mixed well, and then 5 μL of this dilution is transferred in quadruplicate to wells containing cells. […] Plates are returned to the incubator for three days. At the time of drug addition to the experimental plates, the MTS assay is run on the “time 0” plate.
After three days of culture with test compounds (day 5 overall), the MTS assay is done on all wells of the experimental plates. The absorbance values of the quadruplicate sample wells are averaged and divided by the average of the “time 0” values. […] The nine values for each compound are plotted against concentration, and the concentration that produces a relative color yield half way between the maximum and minimum is taken as the IC50 value.
HL-60/ADR cells overexpress the multidrug resistance protein MRP1 which mediates resistance to some chemotherapeutics (Gottesman, M. M., Fojo, T., and Bates, S. E. Multidrug resistance in cancer: role of ATP-dependent transporters. Nature Rev. Cancer, 2: 48-58, 2002). The IC50 values of example 6 of this invention, as well as reference compounds, on HL-60/ADR are compared to values on the sensitive parental HL-60 line.

S1-M1 cells = assay: MTS cytotoxicity test procedure with S1-M1 cells; type: cell-based, human; details: for Ratio: IC50 on S1-M1 cells/IC50 on S1 cells
Description: as §4, §5, §6, §3

KB cells [2] = assay: SRB cytotoxicity test procedure with KB cells; type: cell-based; details: Homo sapiens, SRB assay, means of 2 independent experiments
Description: as §1
The SRB standard cytotoxicity assay is done according to previously reported methods (Discafani, C. M., Carroll, M. L., Floyd Jr., M. B. F., Hollander, I. J., Husain, Z., Johnson, B. D., Kitchen, D., May, M. K., Malo, M. S., Minnick Jr., A. A., Nilakantan, R., Shen, R., Wang Y-F., Wissner, A., Greenberger, L. M. Irreversible inhibition of epidermal growth factor receptor tyrosine kinase with in vivo activity by N-[4-[3-bromophenyl)amino]-6-quinaxolinyl]-2-butynamide (CL-387,785). […] Absorbance is read on a Victor V multi-label plate reader (Perkin Elmer, Gaithersburg, Md.). […]

Row | Compound | IC50 (KB-8-5 cells; Homo sapiens, KB 8.5 cells, means of 2 independent experiments) | Ratio 8.5/KB (KB-8-5 cells; IC50 on KB 8.5 cells/IC50 on KB cells) | IC50 (KB cells [1]) | IC50 (HL-60/ADR cells; Homo sapiens, HL60/ADR, MTS assay, HL-60/ADR cells, means of 2 independent experiments) | Ratio (HL-60/ADR cells) | Ratio (HL-60/ADR cells; listed as example 6) | IC50 (S1-M1 cells; Homo sapiens, MTS assay, S1-M1 cells, means of 2 independent experiments) | Ratio (S1-M1 cells) | Ratio (S1-M1 cells; listed as example 6) | IC50 (KB cells [2])
1 | CN(C)CCCOc1cc(F)c(-c2c(Cl)nc3nccn3c2C2CCCCCC2)c(F)c1 [Example 6, 3-[4-(7-Chloro-5-cycloheptylimidazo[1,2-a]pyrimidin-6-yl)-3,5-difluorophenoxy]-N,N-dimethylpropan-1-amine] | 63 nM | 1.4 | 44 nM | 29 nM | 0.55 | no resistance | 68 nM | 1.1 | no resistance | –
2 | CC(=O)O[C@H]1C(=O)[C@@]2(C)[C@H]([C@H](OC(=O)c3ccccc3)[C@]3(O)C[C@H](OC(=O)[C@H](O)[C@@H](NC(=O)c4ccccc4)c4ccccc4)C(C)=C1C3(C)C)[C@]1(OC(C)=O)CO[C@@H]1C[C@@H]2O [Paclitaxel, reference compound] | – | – | – | – | – | – | – | – | – | 2.2 nM
